Measured values taken from the supplement of paper PMC8671470.
± gives the standard deviation of the averaged measurements.

Test system: HL-60
Assay: cell viability (% survival relative to DMSO control); higher = less cytotoxic
Details: 72 h
How it was run: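 Area under the curve, where listed, was derived from four-parameter log-logistic fits with drc and PharmacoGx. These fits used CellTiter-Glo viability from HL-60 cells in RPMI 1640 with 10% FBS, normalised to DMSO wells and wells holding 10 μM proteasome inhibitor. The full library was rescreened on 384-well plates in duplicate at five tenfold concentrations, 1–10,000 nM, with DMSO or 100 nM of one of three metabolic inhibitors, for 72 h at 37 °C, 5% CO2.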

[1] = 0.001 µM, co-treatment: AZD3965 100 nM
[2] = 0.001 µM, co-treatment: DMSO vehicle
[3] = 0.001 µM, co-treatment: GSK2194069 100 nM
[4] = 0.001 µM, co-treatment: pictilisib 100 nM
[5] = 0.01 µM, co-treatment: AZD3965 100 nM
[6] = 0.01 µM, co-treatment: DMSO vehicle
[7] = 0.01 µM, co-treatment: GSK2194069 100 nM
[8] = 0.01 µM, co-treatment: pictilisib 100 nM
[9] = 0.1 µM, co-treatment: AZD3965 100 nM
[10] = 0.1 µM, co-treatment: DMSO vehicle
[11] = 0.1 µM, co-treatment: GSK2194069 100 nM
[12] = 0.1 µM, co-treatment: pictilisib 100 nM
[13] = 1 µM, co-treatment: AZD3965 100 nM
[14] = 1 µM, co-treatment: DMSO vehicle
[15] = 1 µM, co-treatment: GSK2194069 100 nM
[16] = 1 µM, co-treatment: pictilisib 100 nM
[17] = 10 µM, co-treatment: AZD3965 100 nM
[18] = 10 µM, co-treatment: DMSO vehicle
[19] = 10 µM, co-treatment: GSK2194069 100 nM
[20] = 10 µM, co-treatment: pictilisib 100 nM

Row | Structure (SMILES) | cell viability [1] | cell viability [2] | cell viability [3] | cell viability [4] | cell viability [5] | cell viability [6] | cell viability [7] | cell viability [8] | cell viability [9] | cell viability [10] | cell viability [11] | cell viability [12] | cell viability [13] | cell viability [14] | cell viability [15] | cell viability [16] | cell viability [17] | cell viability [18] | cell viability [19] | cell viability [20]
1 | Clc1ccc2c(c1Cl)CNCC2 | 97.69 ± 0.2% | 100 ± 2.3% | 93.2 ± 0.5% | 97.1 ± 7.5% | 94 ± 7.1% | 103.4 ± 0.11% | 102.4 ± 0.12% | 108 ± 11% | 103 ± 2.1% | 103 ± 3.9% | 107 ± 9.4% | 103 ± 8.7% | 105 ± 4.7% | 99.5 ± 2.9% | 106.8 ± 0.64% | 95.3 ± 7.3% | 102 ± 1.6% | 107 ± 6.2% | 99.73 ± 0.7% | 103.3 ± 0.41%
2 | CC(C)Cc1sc(N)nc1-c1ccc(P(=O)(O)O)o1 | 105 ± 4.8% | 101 ± 7.6% | 108 ± 9.1% | 97.8 ± 1.5% | 99.1 ± 8.8% | 100.4 ± 0.35% | 96.7 ± 7.1% | 89.8 ± 15% | 99.2 ± 21% | 105 ± 7.3% | 103 ± 8.6% | 109 ± 9.9% | 102 ± 3.8% | 104 ± 1.7% | 105 ± 3% | 98.8 ± 7.3% | 101 ± 1.6% | 99.2 ± 4.2% | 100 ± 3.6% | 105 ± 9.4%
3 | Cl.OC[C@H]1NC[C@@H](O)[C@@H](O)[C@@H]1O [1-Deoxymannojirimycin hydrochloride] | 100 ± 3.4% | 99 ± 15% | 94.8 ± 6.3% | 95 ± 18% | 99.9 ± 6.2% | 107 ± 2.2% | 90.2 ± 12% | 99.8 ± 5% | 101 ± 1.6% | 100 ± 1.1% | 93.66 ± 0.51% | 102 ± 2.5% | 101.8 ± 0.31% | 106 ± 1.2% | 101 ± 9% | 111.2 ± 1% | 101 ± 5.8% | 95.9 ± 2.1% | 86.6 ± 3% | 104 ± 6.5%
4 | CN(C)c1nc(O)c2[nH]cnc2n1 [2-Dimethylamino-6-hydroxypurine] | 98.9 ± 2.2% | 99.5 ± 1.3% | 98.8 ± 1.3% | 101 ± 8% | 97.93 ± 0.42% | 103 ± 8.9% | 110 ± 20% | 105 ± 3% | 100 ± 2.5% | 96.5 ± 1.1% | 92.4 ± 1.2% | 102.5 ± 0.56% | 97.6 ± 3% | 88.1 ± 12% | 104 ± 12% | 114 ± 16% | 101.2 ± 0.26% | 102 ± 4.7% | 108 ± 16% | 99 ± 9.8%
5 | O=C(O)c1cc2sccc2[nH]1 [4H-thieno[3,2-b]pyrrole-5-carboxylic acid] | 96.3 ± 5.8% | 101.92 ± 0.033% | 99.1 ± 7.8% | 109 ± 14% | 101 ± 5.4% | 101 ± 2.9% | 100.5 ± 0.55% | 94.5 ± 6.3% | 94.6 ± 11% | 103 ± 7.1% | 101.3 ± 0.73% | 97.3 ± 4.2% | 76.4 ± 8.7% | 97.47 ± 0.64% | 90.2 ± 1.1% | 84.3 ± 7.3% | 104 ± 11% | 104 ± 3.8% | 100 ± 9.4% | 99.3 ± 9.8%
6 | [N-]=[N+]=CC(=O)CC[C@H](N)C(=O)O [6-Diazo-5-oxo-L-norleucine] | 97.4 ± 11% | 98.1 ± 2.5% | 96.8 ± 8.2% | 86.7 ± 24% | 97.3 ± 4.9% | 100.1 ± 0.89% | 101 ± 3.5% | 102 ± 4.2% | 111 ± 13% | 103 ± 1.3% | 105 ± 9.1% | 102 ± 3.5% | 100.44 ± 0.019% | 101 ± 2.2% | 103 ± 6.7% | 105 ± 7.1% | 100 ± 1.3% | 101 ± 2.1% | 101.3 ± 0.3% | 87.8 ± 10%
7 | Sc1ncnc2nc[nH]c12 [6-mercaptopurine] | 101.3 ± 0.71% | 104 ± 1.1% | 99.93 ± 0.86% | 102 ± 1.8% | 102.8 ± 0.97% | 98.8 ± 7% | 106 ± 2.9% | 108 ± 6.8% | 96.3 ± 2% | 97.9 ± 2.4% | 95.62 ± 0.77% | 91.2 ± 1% | 101.2 ± 0.68% | 102 ± 4.9% | 89.8 ± 13% | 98.3 ± 10% | 23.9 ± 2% | 35.1 ± 1.3% | 35.9 ± 3% | 32.6 ± 0.66%
8 | O=C(O)CC[C@H](NC(=O)c1ccc([N+](=O)[O-])cc1)C(=O)O [(S)-2-(4-Nitrobenzamido)pentanedioic acid] | 103.2 ± 0.55% | 101.4 ± 0.26% | 101 ± 4% | 90.7 ± 1.9% | 106 ± 5.3% | 100 ± 2.4% | 110 ± 1.1% | 102 ± 1.9% | 102 ± 1.6% | 99 ± 1.6% | 103 ± 4.5% | 88.78 ± 0.71% | 102 ± 2.1% | 102 ± 2.3% | 102 ± 3.7% | 102 ± 10% | 103 ± 7.4% | 101 ± 1.4% | 99.2 ± 2.3% | 92.3 ± 24%
9 | O=C1Nc2ccccc2/C1=C\NCCc1ccc(O)c(O)c1 [AC1NZZMF] | 95.6 ± 7.7% | 103 ± 1.8% | 99.4 ± 2.7% | 102 ± 6.3% | 90.2 ± 23% | 100.1 ± 0.38% | 98.5 ± 11% | 110 ± 4.9% | 102 ± 4% | 102 ± 1.2% | 100 ± 1.1% | 97.2 ± 13% | 105 ± 8.5% | 102.2 ± 0.11% | 99 ± 0.43% | 103 ± 13% | 87.9 ± 9.7% | 100.97 ± 0.1% | 95.4 ± 1.8% | 74.1 ± 3.9%
10 | Cc1ccc(S(=O)(=O)NC2c3ccccc3Oc3ccccc32)cc1 [AH-7614] | 100 ± 1.6% | 100 ± 0.64% | 104 ± 2.2% | 104.2 ± 0.15% | 99.6 ± 0.97% | 100.5 ± 0.4% | 101 ± 2.9% | 90.6 ± 8.2% | 102 ± 4.4% | 100.4 ± 0.53% | 96.8 ± 5.2% | 96.6 ± 2.9% | 97.3 ± 4.8% | 102.5 ± 0.72% | 95.1 ± 9.7% | 92.2 ± 15% | 95.8 ± 1.2% | 96.04 ± 0.12% | 97.2 ± 3.4% | 96.4 ± 7%
11 | C[C@]12CC[C@H](O)CC1=CC[C@@H]1[C@@H]2CC[C@]2(C)C(c3cccnc3)=CC[C@@H]12 [Abiraterone] | 109 ± 10% | 97.8 ± 1.5% | 106.3 ± 0.78% | 104 ± 14% | 103 ± 1.9% | 98 ± 2.3% | 96.1 ± 4.2% | 102 ± 8% | 93.4 ± 14% | 93.1 ± 11% | 86.9 ± 16% | 84.9 ± 22% | 100.2 ± 0.73% | 97.9 ± 1.7% | 107 ± 11% | 99.5 ± 8.8% | 103 ± 5.8% | 105 ± 5.8% | 105 ± 8.8% | 108 ± 1.3%
12 | O=C(COc1ccc(C(=O)c2ccccc2)cc1)NC1CCN(Cc2ccccc2)CC1 [AdipoRon] | 101 ± 1.2% | 99.7 ± 4.2% | 105 ± 6.7% | 97.7 ± 7.3% | 99.9 ± 9.8% | 100.3 ± 0.47% | 103 ± 5.5% | 104 ± 8% | 106 ± 2% | 104 ± 5.3% | 101 ± 3.1% | 97.7 ± 3.8% | 98.45 ± 0.62% | 80.8 ± 30% | 92.1 ± 7.6% | 92.4 ± 10% | 105 ± 3.6% | 105 ± 5.4% | 93.3 ± 6.3% | 91.2 ± 1.6%
